For 22 molecules, IC50 results are on record in patent US20260272924A1, “ISOINDOLINE DERIVATIVE, BENZOINDOLE DERIVATIVE AND USE THEREOF” (SHANGHAI HELIOSON PHARMACEUTICAL CO., LTD., priority 2023, published 2026).

This assay relates to NCI-H929 multiple myeloma cells. Briefly: Cell Titer-GLO (CTG) assay for proliferation of NCI-H929 cells. The class given is cell-based. The conditions noted are these: Homo sapiens, 72 hours. As to the method:
1. Experimental objective: To determine inhibitory activities of compounds on NCI-H929 multiple myeloma cells.
NCI-H929 cells, purchased from Nanjing Cobioer Biotechnology Co., Ltd, were cultured in RPM11640 (Viva; C3010-0500) medium containing 10% fetal bovine serum (Viva, C04002-500) and 1% of penicillin-streptomycin at 37° C. with 5% of C02 and saturated humidity conditions.
The cells in logarithmic growth phase were plated at 5000 cells per well of a 96-well plate and after overnight incubation, compounds at 0.00512 nM, 0.0256 nM, 0.128 nM, 0.64 nM, 3.2 nM, 16 nM, 80 nM, and 400 nM were dosed into the plate with each dose in 2 duplicate wells. Cells were incubated at 37° C., 5% CO2 for 72 hours. After the incubation, the plate was placed at room temperature for half an hour, and then 50 μL of Cell Titer-Glo® (Promega, G7573) was added. The plate was placed on a shaker for uniform mixing for 2 minutes and was placed in the dark at room temperature for 10 minutes. The luminance signal was measured using SpectraMax Paradigm (Molecular Devices).
Cell activity inhibition rate (%)=1 00−(RLUcompound−RLUblank)/(RLUcontrol−RLUblank)×100%, where control refers to the 0.1% DMSO treatment group, and blank refers to the culture medium control. IC50 values and maximum inhibition rates of the compounds were calculated using a nonlinear regression function “Dose-Response-Inhibition” in Graphpad Prism 7.0.
`Cc1nc(N2CCN(Cc3ccc(Cc4ccc5c6c(cccc46)C(=O)N5[C@H]4CCC(=O)NC4=O)cc3)CC2)cc(-n2cnc(C)n2)n1` [Example 46, (S)-3-(6-(4-((4-(2-methyl-6-(3-methyl-1H-1,2,4-triazol-1-yl)pyrimidin-4-yl)piperazin-1-yl)methyl)benzyl)-2-oxobenzo[cd]indol-1(2H)-yl)piperidin-2,6-dione]: the IC50 amounted to 10 pM. The value for `Cc1nc(N2CCN(C3CN(Cc4ccc(Cc5ccc6c7c(cccc57)C(=O)N6C5CCC(=O)NC5=O)cc4)C3)CC2)cc(-n2cnc(C)n2)n1` (stereo not shown) [Example 48, 3-(6-(4-((3-(4-(2-methyl-6-(3-methyl-1H-1,2,4-triazol-1-yl)pyrimidin-4-yl)piperazin-1-yl)azetidin-1-yl)methyl)benzyl)-2-oxobenzo[cd]indol-1(2H)-yl)piperidin-2,6-dione] was 2 pM; that for `Cc1ncn(-c2ncc(F)c(N3CCN(C4CN(Cc5ccc(Cc6ccc7c8c(cccc68)C(=O)N7C6CCC(=O)NC6=O)cc5)C4)CC3)n2)n1` (stereo not shown) [Example 49, 3-(6-(4-((3-(4-(5-fluoro-2-(3-methyl-1H-1,2,4-triazol-1-yl)pyrimidin-4-yl)piperazin-1-yl)azetidin-1-yl)methyl)benzyl)-2-oxobenzo[cd]indol-1(2H)-yl)piperidin-2,6-dione] was 3 pM; that for `Cc1nc(N2CCN(Cc3ccc(Cc4ccc5c6c(cccc46)C(=O)N5C4CCC(=O)NC4=O)cc3)CC2)cc(-n2cnc(Cl)c2)n1` (stereo not shown) [Example 50, 3-(6-(4-((4-(6-(-4-chloro-1H-imidazol-1-yl)-2-methylpyrimidin-4-yl)piperazin-1-yl)methyl)benzyl)-2-oxobenzo[cd]indol-1(2H)-yl)piperidin-2,6-dione] was 10 pM. `Cc1nc(N2CCN(Cc3ccc(Cc4ccc5c6c(cccc46)C(=O)N5C4CCC(=O)NC4=O)cc3)CC2)cc(-n2cnc(C#N)c2)n1` (stereo not shown) [Example 51, 3-(6-(4-((4-(6-(-4-cyano-1H-imidazol-1-yl)-2-methylpyrimidin-4-yl)piperazin-1-yl)methyl)benzyl)-2-oxobenzo[cd]indol-1(2H)-yl)piperidin-2,6-dione] came in with an IC50 of 10 pM.

Regarding `Cc1ncn(-c2nc(N3CCN(C4CN(Cc5ccc(Cc6ccc7c8c(cccc68)C(=O)N7C6CCC(=O)NC6=O)cc5)C4)CC3)cc(C(F)(F)F)n2)n1` (stereo not shown) [Example 52, 3-(6-(4-((3-(4-(2-(3-methyl-1H-1,2,4-triazol-1-yl)-6-(trifluoromethyl)pyrimidin-4-yl)piperazin-1-yl)azetidin-1-yl)methyl)benzyl)-2-oxobenzo[cd]indol-1(2H)-yl)piperidin-2,6-dione], half-maximal inhibition (IC50) required 10 pM. The value for `Cc1ncn(-c2cccc(N3CCN(C4CN(Cc5ccc(Cc6ccc7c8c(cccc68)C(=O)N7C6CCC(=O)NC6=O)cc5)C4)CC3)n2)n1` (stereo not shown) [Example 53, 3-(6-(4-((3-(4-(6-(3-methyl-1H-1,2,4-triazol-1-yl)pyridin-2-yl)piperazin-1-yl)azetidin-1-yl)methyl)benzyl)-2-oxobenzo[cd]indol-1(2H)-yl)piperidin-2,6-dione] was 3 pM; that for `Cc1nc(N2CCN(C3CN(Cc4ccc(Cc5ccc6c7c(cccc57)C(=O)N6C5CCC(=O)NC5=O)cc4)C3)CC2)cc(-n2cnc(C(F)(F)F)c2)n1` (stereo not shown) [Example 54, 3-(6-(4-((3-(4-(2-methyl-6-(4-(trifluoromethyl)-1H-imidazol-1-yl)pyrimidin-4-yl)piperazin-1-yl)azetidin-1-yl)methyl)benzyl)-2-oxobenzo[cd]indol-1(2H)-yl)piperidin-2,6-dione] was 4 pM. Turning to `O=C1CCC(N2C(=O)c3cccc4c(Cc5ccc(CN6CC(CN7CCN(c8cccc(-n9ccnc9)n8)CC7)C6)cc5)ccc2c34)C(=O)N1` (stereo not shown) [Example 55, 3-(6-(4-((3-((4-(6-(1H-imidazol-1-yl)pyridin-2-yl)piperazin-1-yl)methyl)azetidin-1-yl)methyl)benzyl)-2-oxobenzo[cd]indol-1(2H)-yl)piperidin-2,6-dione], half-maximal inhibition (IC50) was put at 200 pM. Compared with the last molecule, the IC50 is about 50-fold higher. Turning to `O=C1CCC(N2C(=O)c3cccc4c(Cc5ccc(CN6CCN(c7cc(C(F)(F)F)nc(-n8cnc(C(F)(F)F)c8)n7)CC6)cc5)ccc2c34)C(=O)N1` (stereo not shown) [Example 56, 3-(2-oxo-6-(4-((4-(6-(trifluoromethyl)-2-(4-(trifluoromethyl)-1H-imidazol-1-yl)pyrimidin-4-yl)piperazin-1-yl)methyl)benzyl)benzo[cd]indol-1(2H)-yl)piperidin-2,6-dione], inhibition was half-maximal at 100 pM (IC50). The value for `NC(=O)c1cn(-c2cccc(N3CCN(Cc4ccc(COc5cccc6c5CN([C@H]5CCC(=O)NC5=O)C6=O)cc4)CC3)n2)cn1` [Example 57, (S)-1-(6-(4-(4-(((2-(2,6-dioxopiperidin-3-yl)-1-oxoisoindolin-4-yl)oxy)methyl)benzyl)piperazin-1-yl)pyridin-2-yl)-1H-imidazol-4-carboxamide] was 100 pM; that for `O=C1CCC(N2C(=O)c3cccc4c(Cc5ccc(CN6CCN(c7ccnc(-c8cncs8)n7)CC6)cc5)ccc2c34)C(=O)N1` (stereo not shown) [Example 58, 3-(2-oxo-6-(4-((4-(2-(thiazol-5-yl)pyrimidin-4-yl)piperazin-1-yl)methyl)benzyl)benzo[fcd]indol-1(2H)-yl)piperidin-2,6-dione] was 30 pM. In the case of `O=C1CCC(N2C(=O)c3cccc4c(Cc5ccc(CN6CCN(c7cc(C(F)(F)F)nc(-c8cncs8)n7)CC6)cc5)ccc2c34)C(=O)N1` (stereo not shown) [Example 59, 3-(2-oxo-6-(4-((4-(2-(thiazol-5-yl)-6-(trifluoromethyl)pyrimidin-4-yl)piperazin-1-yl)methyl)benzyl)benzo[cd]indol-1(2H)-yl)piperidin-2,6-dione] it was 200 pM; in that of `O=C1CCC(N2C(=O)c3cccc4c(Cc5ccc(CN6CCN(c7nc(-c8cncs8)ncc7F)CC6)cc5)ccc2c34)C(=O)N1` (stereo not shown) [Example 60, 3-(6-(4-((4-(5-fluoro-2-(thiazol-5-yl)pyrimidin-4-yl)piperazin-1-yl)methyl)benzyl)-2-oxobenzo[cd]indol-1(2H)-yl)piperidin-2,6-dione], 30 pM.

Turning to `Cn1c(-c2nccc(N3CCN(Cc4ccc(Cc5ccc6c7c(cccc57)C(=O)N6C5CCC(=O)NC5=O)cc4)CC3)n2)cnc1C(F)(F)F` (stereo not shown) [Example 61, 3-(6-(4-((4-(2-(1-methyl-2-(trifluoromethyl)-1H-imidazol-5-yl)pyrimidin-4-yl)piperazin-1-yl)methyl)benzyl)-2-oxobenzo[cd]indol-1(2H)-yl)piperidin-2,6-dione], the IC50 is 20 pM. For the molecule `O=C1CCC(N2C(=O)c3cccc4c(Cc5ccc(CN6CCN(c7cccc(-n8cnc(C(F)(F)F)n8)n7)CC6)cc5)ccc2c34)C(=O)N1` (stereo not shown) [Example 62, 3-(2-oxo-6-(4-((4-(6-(3-(trifluoromethyl)-1H-1,2,4-triazol-1-yl)pyridin-2-yl)piperazin-1-yl)methyl)benzyl)benzo[cd]indol-1(2H)-yl)piperidin-2,6-dione], the IC50 was found to be 70 pM. In the case of `O=C1CCC(N2C(=O)c3cccc4c(Cc5ccc(CN6CCN(c7cccc(-c8nnc(C(F)(F)F)s8)n7)CC6)cc5)ccc2c34)C(=O)N1` (stereo not shown) [Example 63, 3-(2-oxo-6-(4-((4-(6-(5-(trifluoromethyl)-1,3,4-thiadiazol-2-yl)pyridin-2-yl)piperazin-1-yl)methyl)benzyl)benzo[cd]indol-1(2H)-yl)piperidin-2,6-dione] it was 200 pM; in that of `O=C1CCC(N2C(=O)c3cccc4c(Cc5ccc(CN6CCN(c7ccnc(-c8cccnc8)n7)CC6)cc5)ccc2c34)C(=O)N1` (stereo not shown) [Example 64, 3-(2-oxo-6-(4-((4-(2-(pyridin-3-yl)pyrimidin-4-yl)piperazin-1-yl)methyl)benzyl)benzo[cd]indol-1(2H)-yl)piperidin-2,6-dione], 20 pM; in that of `Cc1noc(C)c1-c1nccc(N2CCN(Cc3ccc(Cc4ccc5c6c(cccc46)C(=O)N5C4CCC(=O)NC4=O)cc3)CC2)n1` (stereo not shown) [Example 65, 3-(6-(4-((4-(2-(3,5-dimethylisoxazol-4-yl)pyrimidin-4-yl)piperazin-1-yl)methyl)benzyl)-2-oxobenzo[cd]indol-1(2H)-yl)piperidin-2,6-dione], 30 pM.

Take `Cc1ncn(-c2cccc(N3CCN(Cc4ccc(COc5cccc6c5CN([C@H]5CCC(=O)NC5=O)C6=O)cc4)CC3)n2)n1` [Example 66, (S)-3-(4-((4-((4-(6-(3-methyl-1H-1,2,4-triazol-1-yl)pyridin-2-Vl)piperazin-1-yl)methyl)benzyl)oxy)-1-oxoisoindolin-2-yl)piperidin-2,6-dione]: the IC50 was determined as 100 pM. This IC50 is about 3.3-fold higher than that of the molecule before.

For the molecule `Cc1ncc(-c2ncc(F)c(N3CCN(Cc4ccc(Cc5ccc6c7c(cccc57)C(=O)N6C5CCC(=O)NC5=O)cc4)CC3)n2)s1` (stereo not shown) [Example 67, 3-(6-(4-((4-(5-fluoro-2-(2-methylthiazol-5-yl)pyrimidin-4-yl)piperazin-1-yl)methyl)benzyl)-2-oxobenzo[cd]indol-1(2H)-yl)piperidin-2,6-dione], the IC50 worked out at 70 pM. The value for `Cc1ncn(-c2ncc(F)c(N3CCN(Cc4ccc(Cc5ccc6c7c(cccc57)C(=O)N6C5CCC(=O)NC5=O)cc4)CC3)n2)n1` (stereo not shown) [Example 68, 3-(6-(4-((4-(5-fluoro-2-(3-methyl-1H-1,2,4-triazol-1-yl)pyrimidin-4-yl)piperazin-1-yl)methyl)benzyl)-2-oxobenzo[cd]indol-1(2H)-yl)piperidin-2,6-dione] was 20 pM.
